The subject of one series is Cyperus difformis. Put plainly: Test Example 3: herbicidal effect by application to foliage (Wagner pot, water depth 0.1-0.5 cm). It is filed as in vivo. The conditions noted are these: Nineteenth Table; application to foliage; application herbicide amount 320 g/ha. The method, boiled down:
(§1)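 Foliar spray, 14-day-old plants, emulsion diluted to target g/ha; rated 3 wk post-application, 0–5 scale (0 ≤5%, 5 ≥90% herbicidal ratio). Greenhouse 25–30 °C, alluvial soil.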
Take `Cc1nnc(NC(=O)c2ccc(C(F)(F)F)n3c(CC(F)(F)F)nnc23)o1` [1-162]: the “E (herbicidal effect grade)” value is 2 (Herbicidal ratio of 20% or more and less than 40%). On the same count and under the same terms, the value for `CCSc1nnc2c(C(=O)Nc3nnnn3CCOC)ccc(C(F)(F)F)n12` [2-098] was 5 (Herbicidal ratio of 90% or more (almost completely withered)); that for `Cc1nnc(NC(=O)c2ccc(C(F)(F)F)n3c(CC(=O)NC(C)C)nnc23)o1` [1-061] was 3 (Herbicidal ratio of 40% or more and less than 70%); that for `CN(CCC#N)c1nnc2c(C(=O)Nc3nnco3)ccc(C(F)(F)F)n12` [1-164] was 4 (Herbicidal ratio of 70% or more and less than 90%). On the same count and under the same terms, next, `CCSc1nnc2c(C(=O)Nc3ncnn3C)ccc(C(F)(F)F)n12` [4-003]: 0 (Herbicidal ratio of 5% or less (almost no effect)); `Cn1nnnc1NC(=O)c1ccc(C(F)(F)F)n2c(SC3CCCC3)nnc12` [2-096]: 5 (Herbicidal ratio of 90% or more (almost completely withered)); `Cn1nnnc1NC(=O)c1ccc(C(F)(F)F)n2c(SCc3ccc(Cl)nc3)nnc12` [2-097]: 4 (Herbicidal ratio of 70% or more and less than 90%). Same read-out and setting: next, `C#CCN(C)c1nnc2c(C(=O)Nc3nnco3)ccc(C(F)(F)F)n12` [1-163]: 4 (Herbicidal ratio of 70% or more and less than 90%); `C=CCc1nnc2c(C(=O)Nc3nnco3)ccc(C(F)(F)F)n12` [1-158]: 4 (Herbicidal ratio of 70% or more and less than 90%).

Another series has as its system directly sowed Oryza sativa. Put plainly: Test Example 3: effect on crop by application to foliage (Wagner pot, water depth 0.1-0.5 cm). The settings on record: Nineteenth Table; application to foliage; application herbicide amount 320 g/ha. It is filed as in vivo. The method, boiled down: as §1
Consider `Cc1nnc(NC(=O)c2ccc(C(F)(F)F)n3c(CC(=O)NC(C)C)nnc23)o1` [1-061], for which the “b (effect on crop grade)” value was 1 (Herbicidal ratio of 5% or more and less than 20%). Still for that read-out and setting: next, `Cc1nnc(NC(=O)c2ccc(C(F)(F)F)n3c(CC#N)nnc23)o1` [1-168]: 3 (Herbicidal ratio of 40% or more and less than 70%); `C=CCN(C)c1nnc2c(C(=O)Nc3nnc(C)o3)ccc(C(F)(F)F)n12` [1-166]: 2 (Herbicidal ratio of 20% or more and less than 40%); `COCCc1nnc2c(C(=O)Nc3nnc(C)o3)ccc(C(F)(F)F)n12` [1-173]: 2 (Herbicidal ratio of 20% or more and less than 40%).
